According to patent US20040265368A1, “Combination compositions of camptothecins and fluoropyrimidines” (priority 2003, published 2004):

Columns and labels:
[1] = system: human HT-29 colon adenocarcinoma; assay: HT-29 colorectal xenograft antitumor activity; settings: i.v., Q7D × 3, tumors to reach 400 mg
Description: (§1) Briefly, in order to perform tumor studies on mice, animals are inoculated with tumor cells which are then allowed to grow to sufficient size. Using a 28 g needle, mice are inoculated subcutaneously with 1-2×10^6 tumor cells on day 0 (one inoculum/mouse) in a volume of 50 μL.
(§2) When tumors reach a defined size of approximately 100 mm^3 to 200 mm^3, either one-day prior to treatment or on the day of treatment, all tumors are measured. After selecting the appropriate tumor sizes, excluding tumors too small or large, the tumors are randomly distributed (n=6) and the mean tumor volume of the groups are determined. Mice are organized into appropriate treatment groups consisting of control and treatment groups such as for example, saline control, liposome control, positive control and various dilutions of test articles.
(§3) Mice are injected intravenously with the required volume of sample to administer the prescribed dose (10 μL/g as indicated) to the animals based on individual mouse weights.
(§4) Tumor growth measurements are monitored using vernier calipers beginning on the day of treatment. Tumor length measurements (mm) are made from the longest axis and width measurements (mm) will be perpendicular to this axis. From the length and width measurements tumor volumes (cm^3) are calculated according to the equation (L×W^2/2. Animal weights and in-life observations are collected at the time of tumor measurement.
(§5) In particular, signs of ill health are based on body weight loss, change in appetite, rough coat, lack of grooming, behavioral changes such as altered gait, lethargy and gross manifestations of stress. Should signs of severe toxicity or tumor-related illness be seen, the animals are euthanized (CO2 asphyxiation) and a necropsy is performed to assess other signs of toxicity. Moribund animals are terminated for humane reasons and the decision to terminate is at the discretion of the Study Director/Manager and the Animal Care Technician. Any and all of these findings will be recorded as raw data and the time of death will be logged as the following day.
(§6) Xenograft tumors were allowed to grow until they measured to be approximately 150 mg (150 mm^3) in size, and the murine tumors were grown to approximately 100 mg (100 mm^3), at which time the indicated formulations were injected. Tumor growth was determined by direct caliper measurements. […] Antitumor activity was quantitated by calculating the percent tumor growth delay and log cell kill. Percent tumor growth delay is defined as the time in days taken for treated tumors to reach the specified evaluation size as a percent of control (T−C/C×100) where T is the treatment tumors and C is the control tumors in days. […] A log cell kill of +6 indicates a 99.9999% reduction in the cell population.

[2] = system: human Capan-1 pancreatic tumor cells; assay: Capan-1 pancreatic xenograft antitumor activity; format: in vivo, SCID-Rag2M mice; settings: i.v., Q7D × 3, tumors to reach 500 mg
Description: as §1, §2, §3, §4, §5, §6

Row | Compound | Log cell kill ([1]; dose 250 mg/kg) | Percent tumor growth delay [(T − C ÷ C) × 100] ([1]; dose 250 mg/kg) [%] | Tumor growth delay ([1]; dose 250 mg/kg) [days] | Percent tumor growth delay [(T − C ÷ C) × 100] ([1]; dose 250 mg/kg, listed as free FUDR) [%] | Log cell kill ([2]; dose 250 mg/kg) | Percent tumor growth delay [(T − C ÷ C) × 100] ([2]; dose 250 mg/kg) [%] | Tumor growth delay ([2]; dose 250 mg/kg) [days] | Log cell kill ([1]; dose 100 mg/kg) | Percent tumor growth delay [(T − C ÷ C) × 100] ([1]; dose 100 mg/kg) [%] | Tumor growth delay ([1]; dose 100 mg/kg) [days] | Percent tumor growth delay [(T − C ÷ C) × 100] ([1]; dose 100 mg/kg, listed as free CPT-11, 100 mg/kg) [%] | Log cell kill ([2]; dose 100 mg/kg) | Percent tumor growth delay [(T − C ÷ C) × 100] ([2]; dose 100 mg/kg) [%] | Tumor growth delay ([2]; dose 100 mg/kg) [days]
1 | O=c1[nH]c(=O)n([C@H]2C[C@H](O)[C@@H](CO)O2)cc1F [Free Flox, fluorodeoxyuridine] | 0.09 | 8 | 2 | 8 | 0.43 | 23 | 10 |  |  |  |  |  |  | 
2 | CCc1c2c(nc3ccc(OC(=O)N4CCC(N5CCCCC5)CC4)cc13)-c1cc3c(c(=O)n1C2)COC(=O)[C@]3(O)CC [Free Irino, irinotecan] |  |  |  |  |  |  |  | 0.09 | 8 | 2 | 8 | 0.65 | 35 | 15
